Our source for the Ki values is patent US20090215857A1 (Pfizer Products Inc., priority 2005, published 2009).

Assay [1] has as its target T1, human serotonin transporter (Homo sapiens, UniProt P31645).
T1 construct: expressed in transfected cells; host or cells: HEK-293
The assay is described as follows: hSERT receptor binding ([125I]-RTI-55 radioligand). The following applies: membranes of HEK-293 cells transfected with human serotonin transporter cDNA; 50 pM [125I]-RTI-55; IC50 converted by Cheng-Prusoff; read-out: SERT Ki. The protocol: Cell pastes of HEK-293 cells transfected with a human serotonin transporter cDNA were prepared. The cell pastes were resuspended in 400 to 700 ml of Krebs-HEPES assay buffer (25 mM HEPES, 122 mM NaCl, 3 mM KCl, 1.2 mM MgSO4, 1.3 mM CaCl2, and 11 mM glucose, pH 7.4) with a Polytron homogenizer at Setting 7 for 30 seconds. Aliquots of membranes (˜2.5 mg/ml protein) were stored in liquid nitrogen until used.
Assays were set up in FlashPlates pre-coated with 0.1% PEI in a total volume of 250 μl containing: test compound (10^−5M to 10^−12M), cell membranes, and 50 pM [^125I]-RTI-55 (Perkin Elmer, NEX-272; specific activity 2200 Ci/mmol). The reaction was incubated and gently agitated for 90 minutes at room temperature, and terminated by removal of assay volume. Plates were covered, and bound [^125I]-RTI-55 was determined using a Wallac Trilux Beta Plate Counter. Test compounds were run in duplicate, and specific binding was defined as the difference between binding in the presence and absence of 10 μM citalopram.
Excel and GraphPad Prism software were used for data calculation and analysis. IC50 values were converted to Ki values using the Cheng-Prusoff equation.

Assay [2] addresses T2, human norepinephrine transporter (Homo sapiens, UniProt P23975).
T2 construct: expressed in transfected cells; host or cells: HEK-293
The assay is described as follows: hNET receptor binding ([125I]-RTI-55 radioligand). The following applies: membranes of HEK-293 cells transfected with human norepinephrine transporter cDNA; 50 pM [125I]-RTI-55; IC50 converted by Cheng-Prusoff; read-out: NET Ki. The protocol:
Cell pastes of HEK-293 cells transfected with a human norepinephrine transporter cDNA were prepared. The cell pastes were resuspended in 400 to 700 ml of Krebs-HEPES assay buffer (25 mM HEPES, 122 mM NaCl, 3 mM KCl, 1.2 mM MgSO4, 1.3 mM CaCl2, and 11 mM glucose, pH 7.4) with a Polytron homogenizer at setting 7 for 30 seconds. Aliquots of membranes (5 mg/ml protein) were stored in liquid nitrogen until used.
The binding assay was set up in Beckman deep-well polypropylene plates with a total volume of 250 μl containing: test compound (10^−5M to 10^−12M), cell membranes, and 50 pM [^125I]-RTI-55 (Perkin Elmer, NEX-272; specific activity 2200 Ci/mmol). The reaction was incubated by gentle agitation for 90 minutes at room temperature and was terminated by filtration through Whatman GF/C filter plates using a Brandel 96-well plate harvester. Scintillation fluid (100 μl) was added to each well, and bound [^125I]-RTI-55 was determined using a Wallac Trilux Beta Plate Counter. Test compounds were run in duplicate, and specific binding was defined as the difference between binding in the presence and absence of 10 μM desipramine.
Excel and GraphPad Prism software were used for data calculation and analysis. IC50 values were converted to K, values using the Cheng-Prusoff equation.

Where a name gives a salt, the structure may show the parent alone.

T2 sequence (P23975 whole entry): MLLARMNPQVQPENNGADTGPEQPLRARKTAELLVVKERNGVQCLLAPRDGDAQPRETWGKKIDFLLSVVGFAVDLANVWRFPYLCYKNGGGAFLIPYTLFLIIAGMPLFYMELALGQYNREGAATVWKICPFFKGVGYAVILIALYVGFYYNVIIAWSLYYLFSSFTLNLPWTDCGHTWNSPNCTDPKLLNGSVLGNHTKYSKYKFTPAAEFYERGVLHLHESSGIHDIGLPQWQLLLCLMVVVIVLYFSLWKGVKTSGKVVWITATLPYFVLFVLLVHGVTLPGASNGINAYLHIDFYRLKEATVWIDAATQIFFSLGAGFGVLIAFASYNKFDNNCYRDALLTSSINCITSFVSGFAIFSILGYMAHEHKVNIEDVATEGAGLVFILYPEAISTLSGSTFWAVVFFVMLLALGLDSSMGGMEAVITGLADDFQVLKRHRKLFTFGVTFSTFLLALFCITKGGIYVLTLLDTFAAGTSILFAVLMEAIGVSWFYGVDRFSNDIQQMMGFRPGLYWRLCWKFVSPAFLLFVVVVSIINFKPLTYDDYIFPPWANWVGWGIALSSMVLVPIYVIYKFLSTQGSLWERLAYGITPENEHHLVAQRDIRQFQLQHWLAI
T1 sequence (P31645 whole entry): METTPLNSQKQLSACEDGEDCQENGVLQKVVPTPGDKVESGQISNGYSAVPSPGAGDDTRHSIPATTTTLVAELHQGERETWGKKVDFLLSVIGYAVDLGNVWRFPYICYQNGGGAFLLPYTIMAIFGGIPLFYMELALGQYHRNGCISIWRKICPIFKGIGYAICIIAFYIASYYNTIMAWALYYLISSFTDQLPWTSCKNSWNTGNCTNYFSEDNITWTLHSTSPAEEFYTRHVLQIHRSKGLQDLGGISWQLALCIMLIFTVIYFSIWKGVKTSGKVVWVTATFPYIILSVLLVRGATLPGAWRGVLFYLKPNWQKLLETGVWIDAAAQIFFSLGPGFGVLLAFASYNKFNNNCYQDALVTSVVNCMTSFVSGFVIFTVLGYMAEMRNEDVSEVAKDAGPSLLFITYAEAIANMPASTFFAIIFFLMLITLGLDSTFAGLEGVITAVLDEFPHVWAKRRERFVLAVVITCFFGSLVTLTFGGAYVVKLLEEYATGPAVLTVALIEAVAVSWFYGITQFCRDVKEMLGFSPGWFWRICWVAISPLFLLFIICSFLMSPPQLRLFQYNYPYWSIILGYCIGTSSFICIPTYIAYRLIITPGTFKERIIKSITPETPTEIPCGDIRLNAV

As for `Cc1ccc(-c2ccccc2CO[C@H]2CCNC2)cc1` [Example A-2, (S)-3-(4′-Methyl-biphenyl-2-ylmethoxy)-pyrrolidine hydrochloride], the Ki in assay [1] is 93.3 nM; in assay [2], 7.6 nM.

`Fc1ccc(-c2ccccc2CO[C@H]2CCNC2)cc1F` [Example A-5, (S)-3-(3′-4′-Difluoro-biphenyl-2-ylmethyloxy)-pyrrolidine hydrochloride]: the results for the Ki in assay [1] and in assay [2] were 12 nM and 11.3 nM, respectively.

On to `c1ccc(-c2ccccc2CO[C@H]2CCNC2)cc1` [Example A-7, (S)-3-(Biphenyl-2-ylmethoxy)-pyrrolidine hydrochloride], for which the Ki in assay [1] turned out to be 34.5 nM; in assay [2], 13.5 nM.

As to `Fc1ccc(-c2ccccc2CO[C@H]2CCNC2)cc1` [Example A-8, (S)-3-(4′-Fluoro-biphenyl-2-ylmethoxy)-pyrrolidine maleate], the results for the Ki in assay [1] and in assay [2] were 20.5 nM and 15.3 nM, respectively.

With `Fc1ccc(-c2ccccc2F)c(CO[C@H]2CCNC2)c1` [Example A-9, (S)-3-(4,2′-Difluoro-biphenyl-2-ylmethoxy)-pyrrolidine fumarate], the Ki in assay [1] amounted to 174 nM; in assay [2] it was 17.7 nM.

Regarding `COc1ccc(-c2ccccc2CO[C@H]2CCNC2)cc1C` [Example A-10, (S)-3-(4′-Methoxy-3′-methyl-biphenyl-2-ylmethoxy)-pyrrolidine fumarate], the Ki in assay [1] worked out at 116 nM; in assay [2] it was 22.8 nM.

Take `Fc1ccc(-c2ccccc2CO[C@H]2CCNC2)cc1Cl` [Example A-11, (S)-3-(3′-Chloro-4′-fluoro-biphenyl-2-ylmethoxy)-pyrrolidine hydrochloride]: the Ki in assay [1] was determined as 10.3 nM; in assay [2], 39.2 nM.

With `Cc1cc(F)ccc1-c1ccccc1CO[C@H]1CCNC1` [Example A-12, (S)-3-(4′-Fluoro-2′-methyl-biphenyl-2-ylmethoxy)-pyrrolidine hydrochloride], the Ki in assay [2] is 50 nM.

`Fc1ccc(-c2ccccc2CO[C@@H]2CCNC2)cc1F` [Example A-13, (R)-3-(3′,4′-Difluoro-biphenyl-2-ylmethoxy)-pyrrolidine fumarate]: the Ki in assay [1] was 54 nM; in assay [2], 66 nM.

Take `c1ccc(-c2ccccc2CO[C@@H]2CCNC2)cc1` [Example A-14, (R)-3-(Biphenyl-2-ylmethoxy)-pyrrolidine hydrochloride]: the Ki in assay [1] came out at 204 nM; in assay [2] it was 67.5 nM.

In the case of `Fc1cccc(-c2ccccc2CO[C@@H]2CCNC2)c1F` [Example A-15, (R)-3-(2′,3′-Difluoro-biphenyl-2-ylmethoxy)-pyrrolidine fumarate], the Ki in assay [1] was 185 nM; in assay [2], 80.9 nM.

Take `Fc1ccccc1-c1ccccc1CO[C@@H]1CCNC1` [Example A-16, (R)-3-(2′-Fluoro-biphenyl-2-ylmethoxy)-pyrrolidine fumarate]: the figures for the Ki in assay [1] and in assay [2] were 436 nM and 89.9 nM, respectively.

As for `CC(C)Oc1ccccc1-c1ccccc1CO[C@H]1CCNC1` [Example A-19, (S)-3-(2′-Isopropoxy-biphenyl-2-ylmethoxy)-pyrrolidine fumarate], the Ki in assay [1] was 752 nM; in assay [2] it was 111 nM.

`Fc1ccc(-c2ccccc2CO[C@@H]2CCNC2)c(F)c1` [Example A-20, (R)-3-(2′,4′-Difluoro-biphenyl-2-ylmethoxy)-pyrrolidine fumarate]: the Ki in assay [1] came out at 313 nM; in assay [2], 127 nM.

As for `CSc1ccccc1-c1ccccc1CO[C@H]1CCNC1` [Example A-21, (S)-3-(2′-Methylsulfanyl-biphenyl-2-ylmethoxy)-pyrrolidine hydrochloride], the Ki is 307 nM in assay [1] and 610 nM in assay [2].

On to `COc1ccc(F)cc1-c1ccccc1CO[C@H]1CCNC1` [Example A-22, fumarate], for which the Ki was 136 nM in assay [1] and ≥ 10000 nM in assay [2].

As to `Fc1ccc(-c2cc(F)ccc2CO[C@H]2CCNC2)c(F)c1` [Example A-23, (S)-(5,2′,4′-Trifluoro-biphenyl-2-ylmethoxy)-pyrrolidine hydrochloride], the inhibition constant (Ki) in assay [1] worked out at 102 nM; in assay [2] it was 15.8 nM.

With `Fc1ccc(CO[C@H]2CCNC2)c(-c2cccc(F)c2F)c1` [Example A-24, (S)-(5,2′,3′-Trifluoro-biphenyl-2-ylmethoxy)-pyrrolidine hydrochloride], the Ki is 232 nM in assay [1] and 14.2 nM in assay [2].

Take `Fc1ccc(CO[C@H]2CCNC2)c(-c2ccccc2F)c1` [Example A-25, (S)-(5,2′-Difluoro-biphenyl-2-ylmethoxy)-pyrrolidine hydrochloride]: the Ki in assay [1] came to 152 nM; in assay [2], 26.2 nM.

As to `Fc1cccc(-c2c(F)cccc2CO[C@H]2CCNC2)c1F` [Example A-26, (S)-3-(6,2′,3′-Trifluoro-biphenyl-2-ylmethoxy)-pyrrolidine hydrochloride], the inhibition constant (Ki) in assay [1] stood at 622 nM; in assay [2] it was 30.6 nM.

As for `c1cncc(-c2ccccc2CO[C@H]2CCNC2)c1` [Example A-27, (S)-3-[2-(Pyrrolidin-3-yloxymethyl)-phenyl]-pyridine hydrochloride], the Ki was 211 nM in assay [1] and 2210 nM in assay [2].

As to `c1ccc(-c2ccncc2)c(CO[C@H]2CCNC2)c1` [Example A-28, (S)-4-[2-(Pyrrolidin-3-yloxymethyl)-phenyl]-pyridine hydrochloride], the Ki in assay [1] is 1760 nM; in assay [2], 4860 nM.

For `COc1ccc(-c2ccccc2CO[C@H]2CCNC2)cn1` [Example A-29, (S)-2-Methoxy-5-[2-(pyrrolidin-3-yloxymethyl)-phenyl]-pyridine fumarate], the Ki came to 2470 nM in assay [1] and 2910 nM in assay [2].

`Fc1ccccc1-c1cccc(F)c1CO[C@H]1CCNC1` [Example A-30, (3S)-3-[(2′,3-difluorobiphenyl-2-yl)methoxy]pyrrolidine fumarate]: the Ki was 247 nM in assay [1] and 80.1 nM in assay [2].

In the case of `Fc1cc(CO[C@H]2CCNC2)c(-c2cccc(F)c2F)cc1F` [Example A-31, (3S)-3-[(2′,3′,4,5-tetrafluorobiphenyl-2-yl)methoxy]pyrrolidine fumarate], the Ki came to 142 nM in assay [1] and 46.3 nM in assay [2].

Take `Fc1ccccc1-c1c(F)cccc1CO[C@H]1CCNC1` [Example A-32, (3S)-3-[(2′,6-difluorobiphenyl-2-yl)methoxy]pyrrolidine hydrochloride]: the Ki in assay [1] came out at 758 nM; in assay [2], 23.9 nM.

Turning to `Fc1cccc(-c2cccc(F)c2CO[C@H]2CCNC2)c1F` [Example A-33, (3S)-3-[(2′,3,3′-trifluorobiphenyl-2-yl)methoxy]pyrrolidine fumarate], the Ki worked out at 99.7 nM in assay [1] and 25.7 nM in assay [2].

In the case of `Fc1ccc(-c2c(F)cccc2CO[C@H]2CCNC2)c(F)c1` [Example A-34, (3S)-3-[(2′,4′,6-trifluorobiphenyl-2-yl)methoxy]pyrrolidine hydrochloride], the Ki turned out to be 439 nM in assay [1] and 23.3 nM in assay [2].

On to `Fc1ccc(-c2ncccc2CO[C@H]2CCNC2)c(F)c1` [Example B-1, (S)-2-(2,4-Difluoro-phenyl)-3-(pyrrolidin-3-yloxymethyl)-pyridine fumarate], for which the Ki in assay [1] was 5650 nM; in assay [2], 1020 nM.

Consider `Fc1cccc(-c2ncccc2CO[C@H]2CCNC2)c1F` [Example B-2, (S)-2-(2,3-Difluoro-phenyl)-3-(pyrrolidin-3-yloxymethyl)-pyridine fumarate], for which the values for the Ki in assay [1] and in assay [2] were 3350 nM and 206 nM, respectively.

Consider `Fc1ccc(Cl)cc1-c1ccccc1CO[C@H]1CCNC1` [Example D-9, (S)-3-(5′-Chloro-2′-fluoro-biphenyl-2-ylmethoxy)-pyrrolidine], for which the Ki in assay [1] came out at 71.6 nM.

Take `Cc1ccc(C)c(-c2ccccc2CO[C@H]2CCNC2)c1` [Example D-23, (S)-3-(2′,5′-Dimethyl-biphenyl-2-ylmethoxy)-pyrrolidine]: the Ki in assay [1] worked out at 154 nM.

Turning to `CCc1ccc(-c2ccccc2CO[C@H]2CCNC2)cc1` [Example D-39, (S)-(4′-Ethyl-biphenyl-2-ylmethoxy)-pyrrolidine], in assay [1], the inhibition constant Ki came to 528 nM.

The term Ki denotes a dissociation constant, usually derived from enzyme kinetics or from competition with a known ligand.
